Test systems include EKVX NSCLC; COLO 205 colon; A549 NSCLC; SF-268 CNS; OVCAR-5 ovarian; MDA-N; RPMI-8226 leukemia; SR leukemia; RXF 393 renal.
Holding throughout (experiment): growth of human tumour cells (NCI), 48 h

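Following 48 hours of exposure in 96-well plates, responses at five concentrations were used to interpolate endpoints linearly. TGI is the concentration that stops growth completely.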 Bounds are passed on as bounds.

With `COc1ccc2c(c1)OCC1(O)Cc3ccccc3OC21` (stereo not drawn), the TGI in the assay with EKVX NSCLC, in the assay with COLO 205 colon, with A549 NSCLC, with SF-268 CNS, with OVCAR-5 ovarian and in the assay on MDA-N was over 100 µM throughout. The TGI with RPMI-8226 leukemia and in the assay with SR leukemia was over 100 µM each time.
With `CC1CN=C(Nc2cccc(C(F)(F)F)c2)S1` (stereo not drawn), the TGI in the assay on EKVX NSCLC, in the assay on SF-268 CNS, in the assay on RXF 393 renal, in the assay on OVCAR-5 ovarian, in the assay on MDA-N and in the assay on RPMI-8226 leukemia was over 100 µM each time. The molecule also gave a TGI in the assay on SR leukemia of over 100 µM.
Turning to `CCOC(=O)C(=[N+]=[N-])C(=O)C[N+]12CCN(CC1)CC2`, the TGI in the assay on COLO 205 colon, in the assay on A549 NSCLC, in the assay with SF-268 CNS, in the assay on RXF 393 renal, in the assay with OVCAR-5 ovarian and with MDA-N was over 100 µM in each case. Moreover, the TGI in the assay with RPMI-8226 leukemia and in the assay with SR leukemia was over 100 µM throughout.
Consider `Nc1ccc2c(c1)C1Oc3ccccc3CC1CO2` (stereo not drawn), for which the TGI in the assay on EKVX NSCLC, in the assay on COLO 205 colon, in the assay with A549 NSCLC, in the assay with SF-268 CNS, in the assay with OVCAR-5 ovarian and in the assay with MDA-N was over 100 µM each time. Further, the TGI in the assay on RPMI-8226 leukemia and with SR leukemia was over 100 µM throughout.
As to `COc1cc(C2c3cc4c(cc3C(O)C3CCC(=O)N23)OCO4)cc(OC)c1OC` (stereo not drawn), the TGI with EKVX NSCLC was over 100 µM; in the assay on COLO 205 colon it was over 100 µM; in the assay with A549 NSCLC, over 100 µM; in the assay on SF-268 CNS, over 100 µM; in the assay with OVCAR-5 ovarian, over 100 µM; in the assay with MDA-N it was 38.2 µM. Also, the TGI with RPMI-8226 leukemia and in the assay on SR leukemia was over 100 µM throughout.
Regarding `Cc1ccc(S(=O)(=O)NC(=O)NC(Cc2c[nH]c3ccccc23)C(=O)O)cc1` (stereo not drawn), the TGI in the assay on COLO 205 colon, in the assay with A549 NSCLC, in the assay on SF-268 CNS, in the assay on RXF 393 renal, with OVCAR-5 ovarian and in the assay with MDA-N was over 100 µM each time. The TGI with RPMI-8226 leukemia and in the assay on SR leukemia was over 100 µM in each case.
In the case of `Cc1cc2c(cc1-c1cc3c(cc1C)C(C(C)C)=C(O)C(=O)/C3=C\Nc1nc(-c3ccccc3)cs1)/C(=C/Nc1nc(-c3ccccc3)cs1)C(=O)C(O)=C2C(C)C`, the TGI is 52.1 µM in the assay with EKVX NSCLC; over 100 µM with COLO 205 colon; 57.2 µM with A549 NSCLC; 72 µM in the assay on SF-268 CNS; 54.5 µM with RXF 393 renal; over 100 µM in the assay with MDA-N. Moreover, the TGI in the assay on RPMI-8226 leukemia and with SR leukemia was over 100 µM in each case.
Take `CCCSc1cc(Cl)c(C)cc1S(=O)(=O)n1ccnc1OCCCN(C)C`: the TGI in the assay on EKVX NSCLC, in the assay with COLO 205 colon, with A549 NSCLC, in the assay on SF-268 CNS, in the assay with RXF 393 renal and in the assay on OVCAR-5 ovarian was over 100 µM each time. Further, the TGI in the assay with MDA-N and in the assay on SR leukemia was over 100 µM in each case.
Regarding `COc1ccc(/C=N\N2CC(=O)N3C4C=CC(CC4)N3C2=O)cc1` (stereo not drawn), the TGI with EKVX NSCLC, in the assay with COLO 205 colon, with A549 NSCLC, with SF-268 CNS, in the assay on OVCAR-5 ovarian and in the assay on MDA-N was over 100 µM throughout. For the same molecule, the TGI with RPMI-8226 leukemia and in the assay with SR leukemia was over 100 µM throughout.
As to `O=C(CCc1cccc(O)c1)NCCc1cccc(O)c1`, the TGI in the assay on EKVX NSCLC, with COLO 205 colon, with A549 NSCLC, with SF-268 CNS, with RXF 393 renal and in the assay on OVCAR-5 ovarian was over 100 µM in each case. The TGI in the assay with MDA-N and in the assay on SR leukemia was over 100 µM throughout.
As to `CCSc1ncnc2c(C3OC(CO)C(O)C3O)nsc12` (stereo not drawn), the TGI in the assay on EKVX NSCLC, in the assay on COLO 205 colon, in the assay on A549 NSCLC, with SF-268 CNS, with RXF 393 renal and in the assay with OVCAR-5 ovarian was over 100 µM in each case. Besides, the TGI with MDA-N and in the assay on SR leukemia was over 100 µM throughout.
On to `CCNC(=S)N/N=C/c1cc(OC)ccc1O`, for which the TGI with EKVX NSCLC, in the assay on COLO 205 colon, in the assay on A549 NSCLC, with SF-268 CNS, with RXF 393 renal and in the assay on OVCAR-5 ovarian was over 100 µM throughout. For the same molecule, the TGI with MDA-N and in the assay with SR leukemia was over 100 µM each time.
With `COc1ccc2oc(S(=O)(=O)N3CC(CCl)c4ccc([N+](=O)[O-])cc43)cc2c1` (stereo not drawn), the TGI was 48.8 µM with EKVX NSCLC; 0.322 µM in the assay on COLO 205 colon; 18.1 µM in the assay on A549 NSCLC; over 39.8 µM in the assay on SF-268 CNS; over 100 µM in the assay on OVCAR-5 ovarian; 11 µM in the assay with MDA-N. For the same molecule, the TGI in the assay with RPMI-8226 leukemia and in the assay with SR leukemia was over 100 µM each time.

These data come from PubChem BioAssay (NCI).
